The values that follow come from patent publication US9661847B2, “Antimicrobial preservative compositions for personal care products” (Galaxy Surfactants Ltd., priority 2011, dated 2017).

Where two headings read alike, the source gives them in different places.

Series [1] deals with Propionibacterium acnes MTCC 1951. Put plainly: Minimum inhibitory concentration. The series is classed as cell-based. The note with it: P. acnes.
Series [2] deals with Bacillus subtilis ATCC 9372. The experiment in a line: Minimum inhibitory concentration. It is filed as cell-based. Conditions: B. subtilis.
The subject of series [3] is Staphylococcus aureus ATCC 6538S. The experiment in a line: Minimum inhibitory concentration. It is filed as cell-based.
Series [4] relates to Pseudomonas aeruginosa Immuno type IV. Put plainly: Minimum inhibitory concentration. The series is classed as cell-based. The note with it: P. aeruginosa.
Series [5] concerns Gram positive, Gram negative bacteria, yeast and mould. The experiment in a line: Minimum inhibitory concentration, whole panel of microbes. Conditions: for Antimicrobial activity, in words: up to 1.0% concentration. The series is classed as cell-based.
For series [6], the system named is Malassezia furfur MTCC 1374. The experiment in a line: Minimum inhibitory concentration. The series is classed as cell-based. The note with it: M. furfur.
The test system of series [7] is Candida albicans ATCC 10231. The experiment in a line: Minimum inhibitory concentration. The note with it: for Concentration of individual component at the MIC of the blend: C. albicans. It is filed as cell-based.
In series [8] the test system is Aspergillus niger ATCC 16404. The experiment in a line: Minimum inhibitory concentration. It is filed as cell-based. Conditions: for Concentration of individual component at the MIC of the blend: A. niger.
In series [9] the test system is Escherichia coli ATCC 10142. Put plainly: Minimum inhibitory concentration. The series is classed as cell-based. Conditions: E. coli.
The conditions of series [10]: 0.1% aqueous solution at 25° C., from 72 dynes/cm; cited from earlier work.
Series [11] in a line: Reduction of surface tension of water. It is filed as physicochemical.

`C=CCCCCCCCCC(=O)NCCO` [Undecylenoyl MEA amide, N-undecylenoyl monoethanol amide]: the “Concentration of individual component at the MIC of the blend” value (“Concentration of individual component” below) amounted to 300 ppm in series [1] (within Preservative Blend No 1); 200 ppm in series [1] (within Preservative Blend No 2); 200 ppm in [2] (within Preservative Blend No 1); 200 ppm in [2] (within Preservative Blend No 2); 200 ppm in series [3] (within Preservative Blend No 1); 300 ppm in series [3] (within Preservative Blend No 2). The “Concentration of individual component” value amounted to 200 ppm in [4] (within Preservative Blend No 1); 300 ppm in series [4] (within Preservative Blend No 2); 400 ppm in series [6] (within Preservative Blend No 1); 400 ppm in [6] (within Preservative Blend No 2); 300 ppm in series [7] (within Preservative Blend No 1); 200 ppm in series [7] (within Preservative Blend No 2). In addition, the “Concentration of individual component” value in [8] (within Preservative Blend No 1) is 300 ppm; in series [8] (within Preservative Blend No 2), 200 ppm; in series [9] (within Preservative Blend No 1), 200 ppm; in [9] (within Preservative Blend No 2) it was 300 ppm. Moreover, the “Concentration needed for antimicrobial activity of the ingredient by itself (range over microbes)” value in series [5] (ingredient alone, octanoyl glycine tested at neutral pH) is given as more than 10000 ppm. In addition, in series [5], the “Antimicrobial activity, in words” value was “does not exhibit any antimicrobial activity”.

Consider `CCCCC(CC)COCC(O)CO` (stereo not shown) [2-ethyl hexyl glyceryl ether, 3-(2-ethylhexyl)oxy 1,2-propanediol], for which, in [10], the “Surface tension of water reduced to” value is given as 32 dynes/cm.

Turning to `CCCCCCCC(=O)NCCO` [Octanoyl MEA amide, N-(2-hydroxylethyl)caprylic acid amide], in series [5], the “Antimicrobial activity, in words” value is “did not exhibit any antibacterial activity”. For the same molecule, the “Surface tension of water reduced to” value is reported as 38 dynes/cm in series [11] (0.05% level) and 30 dynes/cm in [11] (0.1% concentration). Besides, the entries for the “Surface tension of water” value in series [11] (0.05% solution) and in series [11] (0.1% solution) were 38.5 dyne/cm and 30.5 dyne/cm, respectively.

Regarding `OCCOc1ccccc1` [Phenoxy ethanol, 2-Phenoxy ethanol], the “Concentration of individual component” value in series [2] (within Preservative Blend No 2) worked out at 1600 ppm; in series [6] (within Preservative Blend No 2), 3200 ppm. Moreover, the “Concentration of phenoxy ethanol in combination enough to kill the organism” value in series [7] (in combination with [A] and [B] of Preservative Blend No 1, Candida) is “around 0.25%”; in series [8] (in combination with [A] and [B] of Preservative Blend No 1, Aspergillus) it was “around 0.25%”.
